In ChEMBL document CHEMBL1201862, “PubChem BioAssay data set” (2004):
Activity calls are given as the source filed them.

How the values were obtained:
Troponin, cardiac muscle = Troponin, cardiac muscle (Homo sapiens, UniProt P19429+P45379+P63316); test: Fluorescence-based biochemical high throughput dose response assay for activators of the calcium sensitivity of cardiac Regulated Thin Filaments (RTF). [Related pubchem assays (depositor defined):AID493008, AID493018, AID504382, AID504383]; format: protein-complex assay
HEK293 [1] = test: NOD1 signaling inhibitors, primary screen, cell-based, luminescence, uHTS (AID 1578); format: functional; details: Homo sapiens
[2] = growth suppression of beta-catenin-knockout colon cells, dose response, cell-based, HCT116, human colon tumor (AID 1045); format: functional;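 further: HCT116 colon tumor cells with beta catenin knocked out; cells exposed to compound for 60 hours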
HEK293 [3] = test: cells; format: functional, cell-based; details: Homo sapiens
HEK293 [4] = test: NOD2 signaling inhibitors in MDP-stimulated cells, cell-based, uHTS, luminescence (AID 2001); format: functional; details: Homo sapiens
INS1 = test: beta cell apoptosis inhibitors, cytokine rescue, dose response, luminescence, retest (AID 449756); format: functional, cell-based; details: Rattus norvegicus;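 further: cell death triggered by IL-1 beta plus TNF-alpha plus IFN-gamma mixture; protective hits raise ATP signal compared with cytokine alone wells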
[5] = molecular target: Nucleotide-binding oligomerization domain-containing protein 2 (Homo sapiens, UniProt Q9HC29); test: NOD2 signaling inhibitors, cell-based, luminescence, uHTS, HEK293 (AID 1566); format: functional
[6] = Luminescence Cell-Based Dose Retest to Confirm Inhibitors of Cancer Stem Cells. [Related pubchem assays (depositor defined):AID2717, AID2721]; format: functional; details: Homo sapiens
HEK293 [7] = test: cells; format: functional, cell-based; details: Homo sapiens; remark: listed apart in the source
[8] = inhibitors of intracellular T. cruzi replication, confirmation, NIH3T3 host cells, beta-gal luminescence (AID 2044); format: functional, cell-based;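 further: intracellular parasites grown in NIH/3T3 mouse fibroblasts as host cells; luminescent beta-galactosidase reporter signal from transgenic T. cruzi replicating inside host cells; inhibitors lower the luminescence signal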
HEK293 [9] = test: cells; format: functional, cell-based; details: Homo sapiens; remark: listed apart in the source
[10] = molecular target: Neurotensin receptor type 1 (Homo sapiens, UniProt P30989); format: functional;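 further: Image-based confirmatory dose-response assay measuring agonist activity at NTR1; NTR1-expressing U2OS osteosarcoma cells imaged for beta-arrestin GFP spot formation; agonist potency where compounds increase beta-arrestin recruitment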
[11] = growth suppression of PTEN-null colon cells, dose response, cell-based, HCT116 PTEN knockout (AID 1047); format: functional;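 further: HCT116 colon tumor cells with PTEN knocked out; cells exposed to compound for 60 hours before readout; potency for loss of cell viability measured by luminescence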
Cannabinoid receptor 2 [12] = molecular target: T1, Cannabinoid receptor 2 (Homo sapiens, UniProt P34972); test: SAR analysis of antagonists of the Cannabinoid Receptor 2 using an Image-Based Assay - Set 3. [Related pubchem assays (depositor defined):AID2013, AID2026]; format: functional
Cannabinoid receptor 1 [13] = molecular target: T2, Cannabinoid receptor 1 (Homo sapiens, UniProt P21554); test: SAR analysis of agonists of the Cannabinoid Receptor 1 using an Image-Based Assay - Set 4. [Related pubchem assays (depositor defined):AID2013, AID2026]; format: functional
Cannabinoid receptor 1 [14] = molecular target: T2, Cannabinoid receptor 1; test: SAR analysis of antagonists of the Cannabinoid Receptor 1 using an Image-Based Assay - Set 4. [Related pubchem assays (depositor defined):AID2013, AID2026]; format: functional
Cannabinoid receptor 2 [15] = molecular target: T1, Cannabinoid receptor 2; test: SAR analysis of agonists of the Cannabinoid Receptor 2 using an Image-Based Assay - Set 3. [Related pubchem assays (depositor defined):AID2013, AID2026]; format: functional
[16] = molecular target: T3, G-protein coupled receptor 35 (Homo sapiens, UniProt Q9HC97); test: SAR analysis of Agonists of the GPR35 Receptor using an Image-Based Assay - Set 4. [Related pubchem assays (depositor defined):AID2013, AID2026]; format: functional
[17] = molecular target: G-protein coupled receptor 55 (Homo sapiens, UniProt Q9Y2T6); test: SAR Analysis of Selective Antagonists of GPR55 using an Image-Based Assay - Set 4. [Related pubchem assays (depositor defined):AID2013, AID2026]; format: functional;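 further: antagonism of response to 5 µM lysophosphatidylinositol agonist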
[18] = molecular target: T3, G-protein coupled receptor 35; test: SAR analysis of Antagonists of the GPR35 Receptor using an Image-Based Assay - Set 6. [Related pubchem assays (depositor defined):AID2013, AID2026]; format: functional
Ion channel NompC = Ion channel NompC (Danio rerio, UniProt Q7T1G6); test: Dose response cell-based high-throughput screening assay for agonists of the transient receptor potential channel N1 (TRPN1). [Related pubchem assays (depositor defined):AID1424, AID1448]; format: functional
Mucolipin-3 = molecular target: T4, Mucolipin-3 (Homo sapiens, UniProt Q8TDD5); test: Fluorescence counterscreen assay for […] agonists: dose response cell-based high-throughput screening assay to identify agonists of the transient receptor potential channel ML3 (TRPML3). [Related pubchem assays: 1424, 1448 ]; format: functional
T4 sequence (Q8TDD5 whole entry): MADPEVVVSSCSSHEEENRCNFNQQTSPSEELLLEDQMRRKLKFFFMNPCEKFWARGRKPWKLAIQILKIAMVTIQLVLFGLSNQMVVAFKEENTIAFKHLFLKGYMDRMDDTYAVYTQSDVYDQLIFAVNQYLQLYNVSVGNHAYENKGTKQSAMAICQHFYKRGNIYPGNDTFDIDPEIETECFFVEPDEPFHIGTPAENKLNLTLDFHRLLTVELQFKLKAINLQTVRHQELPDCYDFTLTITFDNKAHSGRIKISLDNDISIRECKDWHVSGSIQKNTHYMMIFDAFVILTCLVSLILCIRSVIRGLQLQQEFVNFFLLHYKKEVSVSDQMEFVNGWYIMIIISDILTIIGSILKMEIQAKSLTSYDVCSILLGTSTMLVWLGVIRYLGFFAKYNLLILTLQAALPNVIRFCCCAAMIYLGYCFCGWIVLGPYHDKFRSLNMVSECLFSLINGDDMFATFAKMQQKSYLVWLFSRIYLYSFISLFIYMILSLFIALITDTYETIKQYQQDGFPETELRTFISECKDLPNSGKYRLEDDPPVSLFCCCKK

Compound: C=CCN1C(=O)/C(=C/c2ccc(N3CCOCC3)o2)C(=O)NC1=S
- EC50 (Troponin, cardiac muscle): 5.95 µM (active)

Compound: O=C(/C(=C/c1cccc(Cl)c1)c1nc2ccccc2[nH]1)c1ccccc1
- EC50 (HEK293 [1]): > 20 µM (inactive)
- EC50 [2]: 3.7 µM (active)
- IC50 (HEK293 [3]): > 20 µM (inactive)
- IC50 (HEK293 [4]): 3.14 µM (active)
- AC50 (INS1): 4.22 µM (active)
- EC50 [5]: > 20 µM (inactive)
- AC50 [6]: 1.97 µM (active)
- IC50 (HEK293 [7]): 13.4 µM (active)
- EC50 [8]: 0.755 µM (active)
- IC50 (HEK293 [9]): 1.63 µM (active)
- EC50 [10]: 8.48 µM (active)
- EC50 [11]: 3.93 µM (active)

Compound: Cc1ccc(-n2cc3c(-c4ccc(Cl)cc4)nnc(C)c3n2)cc1
- IC50 (Cannabinoid receptor 2 [12]): 29.8 µM (inactive)
- EC50 (Cannabinoid receptor 1 [13]): > 32 µM (inactive)
- IC50 (Cannabinoid receptor 1 [14]): 0.87 µM (active)
- EC50 (Cannabinoid receptor 2 [15]): > 32 µM (inactive)
- EC50 [16]: > 32 µM (inactive)
- IC50 [17]: 6.13 µM (active)
- IC50 [18]: > 32 µM (inactive)

Compound: O=c1oc2c3c4c(cc2c(C(F)(F)F)c1CCN1CCOCC1)CCCN4CCC3
- EC50 (Ion channel NompC): > 3.32 µM (inactive)
- EC50 (Mucolipin-3): 4.56 µM (active)
